The values that follow come from patent US20230265151A1, “GIP/GLP1 CO-AGONIST COMPOUNDS” (priority 2020, published 2023).

Usually Emax stands for the greatest response seen or fitted, relative to the assay's reference. Usually EC50 stands for the concentration at which the effect is half-maximal.

Format in all cases: cell-based
The target in one test is T1, hGIPR (Homo sapiens, UniProt P48546).
T1 construct: expressed in transfected cells
T1 sequence (P48546 22-466): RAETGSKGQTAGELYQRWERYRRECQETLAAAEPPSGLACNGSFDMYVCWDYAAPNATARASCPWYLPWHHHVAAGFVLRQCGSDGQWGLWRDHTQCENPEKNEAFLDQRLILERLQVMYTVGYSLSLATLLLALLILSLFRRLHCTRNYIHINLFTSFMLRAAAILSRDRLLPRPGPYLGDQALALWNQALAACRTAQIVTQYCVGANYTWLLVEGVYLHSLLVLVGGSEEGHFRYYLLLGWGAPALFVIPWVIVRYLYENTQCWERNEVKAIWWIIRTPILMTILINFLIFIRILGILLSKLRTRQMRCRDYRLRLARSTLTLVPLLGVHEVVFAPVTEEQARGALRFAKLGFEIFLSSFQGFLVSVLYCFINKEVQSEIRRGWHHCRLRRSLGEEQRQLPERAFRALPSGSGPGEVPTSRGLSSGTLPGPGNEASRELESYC
Description: Functional cAMP formation (HTRF) in HEK-293 clonal cells expressing hGIPR, 0.1% bovine casein, without or with 1.0% human serum albumin. Conditions: for EC50: geometric mean. Summed up: (§1)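 Cells were stimulated with peptide for 30 min at 37° C, then intracellular cAMP was measured by competitive HTRF (665/620 nm ratio) and converted to nM using a cAMP standard curve. Relative EC50 and Emax came from four-parameter logistic fits of percent maximal response against peptide concentration.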
In general terms: Changes in cAMP serve as a functional read-out for many G protein-coupled receptors.

The next test deals with T2, hGCGR (Homo sapiens, UniProt P47871).
T2 construct: expressed in transfected cells
Nature of the test: Functional cAMP formation (HTRF) in HEK-293 clonal cells expressing hGCGR, 0.1% bovine casein, without or with 1.0% human serum albumin. Summed up:
as §1

The target in another test is hGLP-1R (Homo sapiens, UniProt P43220). Description: Functional cAMP formation (HTRF) in HEK-293 clonal cells expressing hGLP-1R, 0.1% bovine casein, without or with 1.0% human serum albumin. Conditions: for Emax: HEK293, cAMP, percent of maximal response to GLP-1(7-36)NH2, read-out: hGLP-1R Emax, % ± SEM; for EC50: geometric mean. The arrangement: expressed in transfected cells. Summed up:
as §1

The mark [1] stands for this setting: HEK293, cAMP, 37° C., 0.1% bovine casein and 1.0% human serum albumin, percent of maximal response to GIP(1-42)NH2, read-out: hGIPR Emax, % ± SEM.
Setting [2] is: HEK293, cAMP, 37° C., 0.1% bovine casein, percent of maximal response to GIP(1-42)NH2, arithmetic mean, read-out: hGIPR Emax, % ± SEM.
[3] abbreviates: cAMP, 37° C., 0.1% bovine casein (no human serum albumin), read-out: hGIPR EC50, nM (SEM, n).
The mark [4] stands for this setting: cAMP, 37° C., 0.1% bovine casein (no human serum albumin), geometric mean, read-out: hGCGR EC50, nM (SEM, n).
The mark [5] stands for this setting: cAMP, 37° C., 0.1% bovine casein and 1.0% human serum albumin, geometric mean (SEM, n), read-out: hGCGR EC50, nM (SEM, n).
Setting [6] is: 37° C., 0.1% bovine casein and 1.0% human serum albumin.
Where [7] appears, read: 37° C., 0.1% bovine casein, arithmetic mean.
Where [8] appears, read: cAMP, 37° C., 0.1% bovine casein (no human serum albumin), read-out: hGLP-1R EC50, nM (SEM, n).

Like-named read-outs stand apart in the source and are kept apart here. *1 amine or outer side, *2 acyl side, *3 side chain or, on linkers, in order; H or OH if unused. Where a SMILES comes first, the peptide text is derived from it. Side-chain parts run from the residue outwards. [ ]: non-standard residue; d: D form. The star is where a group is joined. αMePhe(2-F) = C[C@](N)(Cc1ccccc1F)C(=O)O; γGlu = O=C(O)[C@H](CCC(=O)[*:2])N[*:1]; C14 diacid = O=C(O)CCCCCCCCCCCCC(=O)*; αMeY = C[C@](N)(Cc1ccc(O)cc1)C(=O)O; αMeL = CC(C)C[C@](C)(N)C(=O)O; Orn = NCCC[C@H](N)C(=O)O; AEEA = NCCOCCOCC(=O)O; Aib = CC(C)(N)C(=O)O Some results are limits rather than exact numbers.

Chain of hGLP-1R (P43220 24-463): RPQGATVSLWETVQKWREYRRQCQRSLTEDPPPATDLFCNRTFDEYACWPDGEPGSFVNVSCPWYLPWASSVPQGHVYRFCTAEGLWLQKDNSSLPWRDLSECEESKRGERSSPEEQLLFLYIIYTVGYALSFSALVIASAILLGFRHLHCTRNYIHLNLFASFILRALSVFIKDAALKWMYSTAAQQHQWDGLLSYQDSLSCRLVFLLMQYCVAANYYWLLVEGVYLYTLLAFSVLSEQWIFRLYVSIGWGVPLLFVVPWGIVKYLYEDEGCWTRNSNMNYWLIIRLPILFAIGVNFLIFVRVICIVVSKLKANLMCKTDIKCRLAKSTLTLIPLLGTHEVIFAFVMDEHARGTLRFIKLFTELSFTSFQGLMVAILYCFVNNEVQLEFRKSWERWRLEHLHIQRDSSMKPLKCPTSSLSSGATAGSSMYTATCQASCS
T2 sequence (P47871 26-477): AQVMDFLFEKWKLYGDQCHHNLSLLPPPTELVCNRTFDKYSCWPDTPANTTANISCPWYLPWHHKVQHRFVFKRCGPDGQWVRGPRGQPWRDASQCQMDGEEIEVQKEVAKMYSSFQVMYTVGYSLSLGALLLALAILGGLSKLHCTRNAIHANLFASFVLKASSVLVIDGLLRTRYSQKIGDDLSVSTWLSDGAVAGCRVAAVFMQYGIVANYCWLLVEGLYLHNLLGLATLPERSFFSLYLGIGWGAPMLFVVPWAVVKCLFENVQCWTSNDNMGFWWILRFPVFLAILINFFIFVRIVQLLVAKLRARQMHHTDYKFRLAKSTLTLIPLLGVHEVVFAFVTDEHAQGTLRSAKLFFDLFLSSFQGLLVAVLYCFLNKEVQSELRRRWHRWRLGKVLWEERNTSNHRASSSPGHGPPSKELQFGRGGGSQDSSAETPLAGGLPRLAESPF

As for `CC[C@H](C)[C@H](NC(=O)[C@H](CCCN)NC(=O)[C@H](CC(=O)O)NC(=O)[C@H](CC(C)C)NC(=O)[C@](C)(CC(C)C)NC(=O)[C@@H](NC(=O)C(C)(C)NC(=O)[C@H](Cc1ccc(O)cc1)NC(=O)[C@H](CC(=O)O)NC(=O)[C@H](CO)NC(=O)[C@@H](NC(=O)[C@](C)(Cc1ccccc1F)NC(=O)[C@@H](NC(=O)CNC(=O)[C@H](CCC(=O)O)NC(=O)C(C)(C)NC(=O)[C@@H](N)Cc1ccc(O)cc1)[C@@H](C)O)[C@@H](C)O)[C@@H](C)CC)C(=O)N[C@@H](C)C(=O)N[C@@H](CCC(N)=O)C(=O)NC(C)(C)C(=O)N[C@@H](CCC(=O)O)C(=O)N[C@@H](Cc1ccccc1)C(=O)N[C@H](C(=O)N[C@@H](CCCCNC(=O)COCCOCCNC(=O)CC[C@H](NC(=O)COCCOCCNC(=O)CCCCCCCCCCCCC(=O)O)C(=O)O)C(=O)N[C@@](C)(Cc1ccc(O)cc1)C(=O)N[C@@H](CC(C)C)C(=O)N[C@H](C(=O)N[C@@H](CCCCNC(=O)COCCOCCNC(=O)CC[C@H](NC(=O)COCCOCCNC(=O)CCCCCCCCCCCCC(=O)O)C(=O)O)C(=O)NCC(=O)NCC(=O)N1CCC[C@H]1C(=O)N[C@@H](CO)C(=O)N[C@@H](CO)C(=O)NCC(=O)N[C@@H](C)C(=O)N1CCC[C@H]1C(=O)N1CCC[C@H]1C(=O)N1CCC[C@H]1C(=O)N[C@@H](CO)C(N)=O)[C@@H](C)CC)[C@@H](C)CC` [Example 365], the Emax was found to be 93.5% at hGIPR (setting [1]), 105% at hGIPR (setting [2]), 91% on hGLP-1R (setting [6]) and 98.5% at hGLP-1R (setting [7]). For the same compound, the EC50 is 0.00809 nM at hGIPR (setting [3]), greater than 9950 nM at hGCGR (setting [4]), greater than 9950 nM at hGCGR (setting [5]) and 0.362 nM on hGLP-1R (setting [8]).

For `CC[C@H](C)[C@H](NC(=O)[C@H](CC(C)C)NC(=O)C(C)(Cc1ccc(O)cc1)NC(=O)[C@H](CCCCNC(=O)[C@@H](N)CCCCNC(=O)CC[C@H](NC(=O)CCCCCCCCCCCCC(=O)O)C(=O)O)NC(=O)[C@@H](NC(=O)[C@H](Cc1ccccc1)NC(=O)[C@H](CCC(=O)O)NC(=O)C(C)(C)NC(=O)[C@H](CCC(N)=O)NC(=O)[C@H](C)NC(=O)[C@H](CCCCNC(=O)[C@@H](N)CCCCNC(=O)CC[C@H](NC(=O)CCCCCCCCCCCCC(=O)O)C(=O)O)NC(=O)[C@H](CCCN)NC(=O)[C@H](CC(=O)O)NC(=O)[C@H](CC(C)C)NC(=O)C(C)(CC(C)C)NC(=O)[C@@H](NC(=O)[C@H](CO)NC(=O)[C@H](Cc1ccncc1)NC(=O)[C@H](CC(=O)O)NC(=O)[C@H](CO)NC(=O)[C@@H](NC(=O)C(C)(Cc1ccccc1F)NC(=O)[C@@H](NC(=O)CNC(=O)[C@H](CCC(=O)O)NC(=O)C(C)(C)NC(=O)[C@@H](N)Cc1ccc(O)cc1)[C@@H](C)O)[C@@H](C)O)[C@@H](C)CC)[C@@H](C)CC)C(=O)N[C@@H](CCC(=O)O)C(=O)NCC(=O)NCC(=O)N1CCC[C@H]1C(=O)N[C@@H](CO)C(=O)N[C@@H](CO)C(=O)NCC(=O)N[C@@H](C)C(=O)N1CCC[C@H]1C(=O)N1CCC[C@H]1C(=O)N1CCC[C@H]1C(=O)N[C@@H](CO)C(N)=O` (stereo partly drawn) [Example 161], the Emax on hGIPR (HEK293, read-out: hGIPR Emax, % ± SEM, percent of maximal response to GIP(1-42)NH2, 37° C., 0.1% bovine casein, arithmetic mean) is 94.6 ± 1.21%. Besides, the EC50 at hGIPR (hGIPR EC50, nM (SEM, n), cAMP, incubated at 37° C., 0.1% bovine casein (no human serum albumin)) is 0.0207 nM; on hGCGR (hGCGR EC50, nM (SEM, n), cAMP, incubated at 37° C., 0.1% bovine casein (no human serum albumin), geometric mean) it was greater than 9950 nM; on hGLP-1R (hGLP-1R EC50, nM (SEM, n), cAMP, incubated at 37° C., 0.1% bovine casein (no human serum albumin)), 0.203 nM.

Consider `CC[C@H](C)[C@H](NC(=O)[C@H](CC(C)C)NC(=O)[C@](C)(Cc1ccc(O)cc1)NC(=O)[C@@H](CCC(=O)O)NC(=O)[C@@H](NC(=O)[C@H](Cc1ccccc1)NC(=O)[C@H](CCC(=O)O)NC(=O)C(C)(C)NC(=O)[C@H](CCC(N)=O)NC(=O)[C@H](C)NC(=O)[C@H](CCCCNC(=O)COCCOCCNC(=O)CC[C@H](NC(=O)CCCc1ccc(C(C)(C)C)cc1)C(=O)O)NC(=O)[C@H](CCCN)NC(=O)[C@H](CC(=O)O)NC(=O)[C@H](CC(C)C)NC(=O)[C@](C)(CC(C)C)NC(=O)[C@@H](NC(=O)[C@H](CO)NC(=O)[C@H](Cc1ccncc1)NC(=O)[C@H](CC(=O)O)NC(=O)[C@H](CO)NC(=O)[C@@H](NC(=O)[C@](C)(Cc1ccccc1F)NC(=O)[C@@H](NC(=O)CNC(=O)[C@H](CCC(=O)O)NC(=O)C(C)(C)NC(=O)[C@@H](N)Cc1ccc(O)cc1)[C@@H](C)O)[C@@H](C)O)[C@@H](C)CC)[C@@H](C)CC)C(=O)N[C@@H](CCCCNC(=O)COCCOCCNC(=O)CC[C@H](NC(=O)CCCc1ccc(C(C)(C)C)cc1)C(=O)O)C(=O)NCC(=O)NCC(=O)N1CCC[C@H]1C(=O)N[C@@H](CO)C(=O)N[C@@H](CO)C(=O)NCC(=O)N[C@@H](C)C(=O)N1CCC[C@H]1C(=O)N1CCC[C@H]1C(=O)N1CCC[C@H]1C(=O)N[C@@H](CO)C(N)=O` [Example 208], for which the EC50 at hGIPR (0.1% bovine casein and 1.0% human serum albumin, 37° C., read-out: hGIPR EC50, nM (SEM, n)) is 0.126 nM; at hGIPR (cAMP, incubated at 37° C., 0.1% bovine casein (no human serum albumin), read-out: hGIPR EC50, nM (SEM, n)), 0.018 nM; on hGCGR (0.1% bovine casein and 1.0% human serum albumin, 37° C., geometric mean, read-out: hGCGR EC50, nM (SEM, n)), greater than 9950 nM; on hGCGR (cAMP, incubated at 37° C., 0.1% bovine casein (no human serum albumin), geometric mean, read-out: hGCGR EC50, nM (SEM, n)), greater than 9950 nM; at hGLP-1R (0.1% bovine casein and 1.0% human serum albumin, 37° C., read-out: hGLP-1R EC50, nM (SEM, n)) it was 1.58 nM. Moreover, the Emax on hGIPR (HEK293, 0.1% bovine casein and 1.0% human serum albumin, 37° C., percent of maximal response to GIP(1-42)NH2, read-out: hGIPR Emax, % ± SEM) was 64.1%; at hGIPR (HEK293, percent of maximal response to GIP(1-42)NH2, 37° C., 0.1% bovine casein, arithmetic mean, read-out: hGIPR Emax, % ± SEM), 94.9%.

For `CC[C@H](C)[C@H](NC(=O)[C@H](CC(C)C)NC(=O)[C@](C)(Cc1ccc(O)cc1)NC(=O)[C@@H](CCC(=O)O)NC(=O)[C@@H](NC(=O)[C@H](Cc1ccccc1)NC(=O)[C@H](CCCN)NC(=O)C(C)(C)NC(=O)[C@H](CCC(N)=O)NC(=O)[C@H](C)NC(=O)[C@H](CCCCNC(=O)COCCOCCNC(=O)COCCOCCNC(=O)CC[C@H](NC(=O)CCCCCCCCCCCCC(=O)O)C(=O)O)NC(=O)[C@H](CCCN)NC(=O)[C@H](CC(=O)O)NC(=O)[C@H](CC(C)C)NC(=O)[C@](C)(CC(C)C)NC(=O)[C@@H](NC(=O)C(C)(C)NC(=O)[C@H](Cc1ccc(O)cc1)NC(=O)[C@H](CC(=O)O)NC(=O)[C@H](CO)NC(=O)[C@@H](NC(=O)[C@](C)(Cc1ccccc1F)NC(=O)[C@@H](NC(=O)CNC(=O)[C@H](CCC(=O)O)NC(=O)C(C)(C)NC(=O)[C@@H](N)Cc1ccc(O)cc1)[C@@H](C)O)[C@@H](C)O)[C@@H](C)CC)[C@@H](C)CC)C(=O)N[C@@H](CCCCNC(=O)COCCOCCNC(=O)COCCOCCNC(=O)CC[C@H](NC(=O)CCCCCCCCCCCCC(=O)O)C(=O)O)C(=O)NCC(=O)NCC(=O)N1CCC[C@H]1C(=O)N[C@@H](CO)C(=O)N[C@@H](CO)C(=O)NCC(=O)N[C@@H](C)C(=O)N1CCC[C@H]1C(=O)N1CCC[C@H]1C(=O)N1CCC[C@H]1C(=O)N[C@@H](CO)C(N)=O` [Example 349] (H-Y[Aib]EGT[αMePhe(2-F)]TSDY[Aib]I[αMeL]LD[Orn]K([AEEA-AEEA-γGlu-C14 diacid])AQ[Aib][Orn]FI[dE][αMeY]LIK([AEEA-AEEA-γGlu-C14 diacid])GGPSSGAPPPS-NH2; N-terminus assumed), the Emax on hGIPR (setting [1]) was 79.3%; on hGIPR (setting [2]), 95.9%; at hGLP-1R (setting [6]) it was 94.3%; at hGLP-1R (setting [7]), 99%. Moreover, the EC50 on hGIPR (setting [3]) is 0.015 nM; on hGCGR (setting [4]), greater than 9950 nM; on hGCGR (setting [5]), greater than 9950 nM; at hGLP-1R (setting [8]) it was 0.334 nM.
